Our source for the IC50 values is patent US12528792B2, “Sulfonamide compounds and the use thereof in the treatment of cancer” (TROBIO THERAPEUTICS PTY LTD, priority 2019, dated 2026).

Molecules are shown by their SMILES.

What all share (format): cell-based
For test [1], the system named is A2780 (ovarian) cells. The test is described as follows: Anti-proliferative activity, Cell-Titre luminescent viability assay. Conditions: Homo sapiens, 72 h exposure, Cell-Titre luminescent reagent. As to the method: (§1) The ability of compounds of the disclosure to inhibit the proliferation of cancer cells representative of non-small cell lung cancer and ovarian cancer (Table 1), and pancreatic cancer, colorectal cancer and prostate cancer (Table 2) was assessed. Briefly, a predetermined number of cells as calculated from cell growth assays for each of the cell lines employed were seeded into their respective culture medium (using ATCC culture parameters—http://www.atcc.org) and cultured for 24 h at 37° C. and 5% CO2 in 96-well culture plates. Once attached, each cell line was then exposed to various concentrations of each respective analogue (100, 30, 10, 3, 1 and 0.3 µM or 30, 10, 3, 1, 0.3 and 0.1 μM), cultured for a further 72 h and exposed to Cell-Titre luminescent reagent (100 μL/well) for a further 30 min. Luminescence was captured using an EnVision multilabel reader and the data for each analogue concentration compared against no treatment control. Cell viability was normalised to control (vehicle alone) and dose response curves, and half maximal effective concentration (EC50) values were determined using Graph Pad Prism 6 (nonlinear regression sigmoidal dose-response variable slope).

Test [2] concerns A549 (NSCLC) cells. Described as above. Conditions: Homo sapiens, 72 h exposure, Cell-Titre luminescent reagent. As to the method:
as §1

The test system of test [3] is SK-N-SH neuroblastoma cells. The test is described as follows: Cytotoxicity assay, MTS viability. Conditions: Homo sapiens, 72 hours. As to the method:
The ability of compounds of the disclosure to inhibit the proliferation of SK—N—SH neuroblastoma cells was assessed. The SK—N—SH cell line was maintained as a monolayer in Dulbeccos Modified Eagles medium (DMEM) supplemented with 10% foetal bovine serum (FBS) and grown at 37° C. in a humidified atmosphere with 5% CO2. For the cytotoxicity assay, SK—N—SH cells were seeded at a density of 2×10^3 cells per well in 96-well plates. The cells were treated with serial dilutions of the test compounds (1:2 starting concentration 100 µM) and viability measured after 72 hours using a standard MTS assay. Cell viability was normalised to control (vehicle alone) and dose response curves and EC50 values (Table 3) were determined using Graph Pad Prism 6.

Turning to `O=C(Nc1ccc(Cl)c(F)c1)c1ccn(S(=O)(=O)c2ccc3[nH]ccc3c2)c1` [Compound 69, 1-((1H-indol-5-yl)sulfonyl)-N-(4-chloro-3-fluorophenyl)-1H-pyrrole-3-carboxamide], the IC50 (commonly the concentration that inhibits the measured activity by half) in test [1] turned out to be 8.66 µM; in test [2], 13.3 µM; in test [3], 17.3 µM.

`CCC(C)c1ccccc1NC(=O)c1ccn(S(=O)(=O)c2ccc3[nH]ccc3c2)c1` (stereo not shown) [Compound 36, 1-((1H-indol-5-yl)sulfonyl)-N-(2-(sec-butyl)phenyl)-1H-pyrrole-3-carboxamide]: the half-maximal inhibitory concentration (IC50) turned out to be 6.1 µM in test [1], 8.9 µM in test [2] and 22.2 µM in test [3].

Regarding `CC(C)c1ccc(NC(=O)c2ccn(S(=O)(=O)c3ccc4[nH]ccc4c3)n2)cc1F` [Compound 108, 1-((1H-indol-5-yl)sulfonyl)-N-(3-fluoro-4-isopropylphenyl)-1H-pyrazole-3-carboxamide], the IC50 in test [1] stood at 8.71 µM; in test [2], 4.09 µM; in test [3], 9.71 µM.

Turning to `O=C(Nc1cccc(F)c1)c1ccn(S(=O)(=O)c2ccc3[nH]ccc3c2)c1` [Compound 49, 1-((1H-indol-5-yl)sulfonyl)-N-(3-fluorophenyl)-1H-pyrrole-3-carboxamide], the IC50 in test [1] amounted to 4.1 µM; in test [2], 6.3 µM; in test [3] it was 15.4 µM.

Consider `CCCc1ccc(NC(=O)c2ccn(S(=O)(=O)c3ccc4[nH]ccc4c3)n2)cc1` [Compound 109, 1-((1H-indol-5-yl)sulfonyl)-N-(4-propylphenyl)-1H-pyrazole-3-carboxamide], for which the IC50 in test [1] worked out at 8.65 µM; in test [2], 5.53 µM; in test [3], 11 µM.

With `Cc1ccc(NC(=O)C2CCN(S(=O)(=O)c3ccc4[nH]ccc4c3)CC2)cc1O` [Compound 7, 1-((1H-indol-5-yl)sulfonyl)-N-(3-hydroxy-4-methylphenyl)piperidine-4-carboxamide], the results for the IC50 in test [1], in test [2] and in test [3] were 41.4 µM, 44.4 µM and 32.6 µM, respectively.

On to `Cc1ccc(NC(=O)N2CCN(S(=O)(=O)c3ccc4[nH]ccc4c3)CC2)cc1O` [Compound 16, 4-((1H-indol-5-yl)sulfonyl)-N-(3-hydroxy-4-methylphenyl)piperazine-1-carboxamide], for which the IC50 in test [1] stood at 28.8 µM; in test [2], 17.3 µM; in test [3], 31.5 µM.

Take `CC(C)(C)c1ccc(NC(=O)c2ccn(S(=O)(=O)c3ccc4[nH]ccc4c3)c2)cc1` [Compound 100, 1-((1H-indol-5-yl)sulfonyl)-N-(4-(tert-butyl)phenyl)-1H-pyrrole-3-carboxamide]: the results for the IC50 in test [1], in test [2] and in test [3] were 8.87 µM, 11 µM and 7.51 µM, respectively.

For the molecule `CC(C)c1ccc(NC(=O)c2ccn(S(=O)(=O)c3ccc4[nH]ccc4c3)c2)cc1` [Compound 37, 1-((1H-indol-5-yl)sulfonyl)-N-(4-isopropylphenyl)-1H-pyrrole-3-carboxamide], the IC50 in test [1] came out at 4.3 µM; in test [2], 5.8 µM; in test [3], 10.8 µM.

For `CCC(C)c1ccc(NC(=O)c2ccn(S(=O)(=O)c3ccc4c(c3)CCN4)c2)cc1` (stereo not shown) [Compound 21, N-(4-(sec-butyl)phenyl)-1-(indolin-5-ylsulfonyl)-1H-pyrrole-3-carboxamide], the IC50 in test [1] was 20 µM; in test [2], 37.4 µM; in test [3], 27.1 µM.

For the molecule `CCC(C)c1ccc(NC(=O)C2CCN(S(=O)(=O)c3ccc4cc[nH]c4c3)CC2)cc1` (stereo not shown) [Compound 64, 1-((1H-indol-6-yl)sulfonyl)-N-(4-(sec-butyl)phenyl) piperidine-4-carboxamide], the IC50 in test [1] was determined as 9.8 µM; in test [2] it was 14 µM; in test [3] it was 4.05 µM.

As to `CC(C)c1cccc(NC(=O)c2ccn(S(=O)(=O)c3ccc4[nH]ccc4c3)c2)c1` [Compound 38, 1-((1H-indol-5-yl)sulfonyl)-N-(3-isopropylphenyl)-1H-pyrrole-3-carboxamide], the IC50 came out at 6.7 µM in test [1], 5.4 µM in test [2] and 12 µM in test [3].

For the molecule `CCC(C)c1cccc(NC(=O)c2ccn(S(=O)(=O)c3ccc4[nH]ccc4c3)c2)c1` (stereo not shown) [Compound 35, 1-((1H-indol-5-yl)sulfonyl)-N-(3-(sec-butyl)phenyl)-1H-pyrrole-3-carboxamide], the half-inhibitory concentration (IC50) in test [1] amounted to 2.2 µM; in test [2], 3.6 µM; in test [3] it was 6.81 µM.

With `N#Cc1ccc(NC(=O)c2ccn(S(=O)(=O)c3ccc4[nH]ccc4c3)c2)cc1` [Compound 67, 1-((1H-indol-5-yl)sulfonyl)-N-(4-cyanophenyl)-1H-pyrrole-3-carboxamide], the results for the IC50 in test [1], in test [2] and in test [3] were 6.23 µM, 14.1 µM and 15.7 µM, respectively.

For the molecule `CC(C)(C)c1ccc(S(=O)(=O)n2ccc(C(=O)Nc3ccc(C(F)(F)F)cc3)c2)cc1` [Compound 93, 1-((4-(tert-butyl)phenyl)sulfonyl)-N-(4-(trifluoromethyl)phenyl)-1H-pyrrole-3-carboxamide], the IC50 in test [1] came to 3.2 µM; in test [2], 12.8 µM; in test [3], 18.2 µM.

`Cc1ccccc1NC(=O)c1ccn(S(=O)(=O)c2ccc3[nH]ccc3c2)c1` [Compound 45, 1-((1H-indol-5-yl)sulfonyl)-N-(o-tolyl)-1H-pyrrole-3-carboxamide]: the IC50 in test [1] came out at 2.2 µM; in test [2], 5.2 µM; in test [3], 27 µM.

For `CCC(C)c1ccc(NC(=O)C2CCN(S(=O)(=O)c3cc(C(=O)N(C)C)n(C)c3)CC2)cc1` (stereo not shown) [Compound 27, N-(4-(sec-butyl)phenyl)-1-((5-(dimethylcarbamoyl)-1-methyl-1H-pyrrol-3-yl)sulfonyl)piperidine-4-carboxamide], the IC50 in test [1] and in test [2] was more than 100 µM throughout.

In the case of `CCc1ccccc1NC(=O)C1CCN(S(=O)(=O)c2ccc3[nH]ccc3c2)CC1` [Compound 61, 1-((1H-indol-5-yl)sulfonyl)-N-(2-ethylphenyl)piperidine-4-carboxamide], the concentration for half-maximal inhibition (IC50) in test [1] and in test [2] was more than 30 µM in each case.

Take `Cn1cc(S(=O)(=O)N2CCC(C(=O)Nc3ccccc3)CC2)cc1C(N)=O` [Compound 30, 1-((5-carbamoyl-1-methyl-1H-pyrrol-3-yl)sulfonyl)-N-phenylpiperidine-4-carboxamide]: the IC50 in test [1] and in test [2] was more than 100 µM throughout.

As to `CCC(C)c1ccc(NCC2CCN(S(=O)(=O)c3cc(C(N)=O)n(C)c3)CC2)cc1` (stereo not shown) [Compound 33, 4-((4-(((4-(sec-butyl)phenyl)amino)methyl)piperidin-1-yl)sulfonyl)-1-methyl-1H-pyrrole-2-carboxamide], the IC50 in test [1] is 12.1 µM; in test [2] it was more than 100 µM.

Turning to `CC(C)Cc1ccc(NC(=O)c2ccn(S(=O)(=O)c3ccc4[nH]ccc4c3)n2)cc1F` [Compound 112, 1-((1H-indol-5-yl)sulfonyl)-N-(3-fluoro-4-isobutylphenyl)-1H-pyrazole-3-carboxamide], the IC50 in test [1] stood at 8.81 µM; in test [2], 5.11 µM.

As to `CC(C)(C)c1ccc(S(=O)(=O)n2ccc(C(=O)NCCc3ccc(C(F)(F)F)cc3)c2)cc1` [Compound 90, 1-((4-(tert-butyl)phenyl)sulfonyl)-N-(4-(trifluoromethyl)phenethyl)-1H-pyrrole-3-carboxamide], the IC50 in test [1] and in test [2] was more than 30 µM each time.

As for `CCC(C)c1ccc(NC(=O)c2ccn(S(=O)(=O)c3ccc(C(C)(C)C)cc3)c2)cc1` (stereo not shown) [Compound 91, N-(4-(sec-butyl)phenyl)-1-((4-(tert-butyl)phenyl)sulfonyl)-1H-pyrrole-3-carboxamide], the IC50 in test [1] and in test [2] was more than 30 µM throughout.

For `CC(C)c1ccccc1NC(=O)c1ccn(S(=O)(=O)c2ccc3[nH]ccc3c2)c1` [Compound 39, 1-((1H-indol-5-yl)sulfonyl)-N-(2-isopropylphenyl)-1H-pyrrole-3-carboxamide], the IC50 in test [1] and in test [2] was more than 30 µM each time.

For `O=C(Nc1ccc(F)c(Cl)c1)c1ccn(S(=O)(=O)c2ccc3[nH]ccc3c2)n1` [Compound 82, 1-((1H-indol-5-yl)sulfonyl)-N-(3-chloro-4-fluorophenyl)-1H-pyrazole-3-carboxamide], the IC50 in test [1] is 10.5 µM; in test [2], 16.1 µM.

With `Cc1cccc(C)c1NC(=O)c1ccn(S(=O)(=O)c2ccc3[nH]ccc3c2)c1` [Compound 51, 1-((1H-indol-5-yl)sulfonyl)-N-(2,6-dimethylphenyl)-1H-pyrrole-3-carboxamide], the 50% inhibitory concentration (IC50) in test [1] came out at 7.2 µM; in test [2], 17.9 µM.

Take `CCc1ccc(NC(=O)c2ccn(S(=O)(=O)c3ccc4[nH]ccc4c3)c2)cc1` [Compound 40, 1-((1H-indol-5-yl)sulfonyl)-N-(4-ethylphenyl)-1H-pyrrole-3-carboxamide]: the IC50 was found to be 11 µM in test [1] and 11.3 µM in test [2].
